Assay [1] concerns HT1080 fibrosarcoma cells. Put plainly: Chemoinvasion assay, type IV collagen-coated Transwell inserts (Boyden chamber). The format is cell-based, human. Conditions: Homo sapiens, HT-1080, 48 h, type IV collagen-coated filters, read-out: inhibition of HT1080 cell invasion (chemoinvasion). The method, then: Plates (24-well) (Falcon, Becton-Dickinson, USA) and 6.5 mm polycarbonate filters (8 μm pore size) of Transwell cell culture chamber inserts (Costar, Netherlands) were coated with 100 μl of type IV collagen purified from human placenta diluted at 200 μg ml^−1 in phosphate-buffered saline (PBS). Coats were left to air-dry overnight in a laminar flow hood under UV light. Uniformity of the coating was assessed by Coomassie blue staining. Before use, coated plates and inserts were washed twice with water and incubated for at least 1 h in serum-free DMEM at 37°C ([Maquoi et al, 1999]).
HT1080 cells exponentially growing in T-75 flasks (Nunc, Costar, Netherlands) were collected by trypsin–ethylenediaminetetraacetic acid treatment, washed with serum-containing medium and allowed to recover from trypsinisation for at least 30 min at 37°C. Cells were then washed twice in serum-free DMEM and diluted in the same medium supplemented with 0.1% bovine serum albumin (BSA, fraction V, Sigma, USA) to a cell density of 6 × 10^5 cells ml^−1.
The influence of coumarin derivatives (0.1, 1 and 10 μM) on HT1080 cell invasion and migration was assayed using Transwell cell culture inserts (Costar) and compared to the reference compound GI 129471 (1 μM), an MMP inhibitor ([Wheeler et al, 1998]).
For chemoinvasion assays, type IV collagen-coated membranes (see above) were used, whereas uncoated membranes were employed for chemotaxis assays. Lower wells of chambers were filled with DMEM supplemented with 20% FCS and 1% BSA (fraction V, ICN) as chemoattractant, in the presence or absence of coumarin derivative (final concentration 0.1, 1 and 10 μM) or GI 129471 (final concentration 1 μM). Cells (6 × 10^4) suspended in DMEM supplemented with 0.1% BSA (fraction V, ICN) were seeded in the upper wells. Chambers were subsequently incubated for 48 and 4 h for chemoinvasion and chemotaxis assays, respectively, in a humid atmosphere at 37°C (in order to maintain a chemotactic gradient, media from both lower and upper wells were renewed after 24 h). After incubation, filters were removed from the chambers, fixed in 4% paraformaldehyde for 15 min (4°C), permeabilised for 10 min in methanol (−20°C) and stained with Giemsa (4%) for 15 min. The upper surface of the filters was scrapped with a cotton swab and cells having reached the lower surface of the filters were visually counted using a light microscope (Vanox AH3, Olympus, Hamburg, Germany) at 20-fold magnification. Each assay was performed in triplicate. Results were expressed as percentages (±s.d.) of the migration of control cells.

The subject of assay [2] is HMW- and LMW-uPA. Put plainly: Plasminogen zymography of HT1080 conditioned medium. It is filed as biochemical, human. Conditions: 1–100 μM in HT1080 conditioned medium. The protocol: The culture medium of human fibrosarcoma HT1080 cells (DMEM) was removed and concentrated 20-fold in a Vivaspin 6 ml concentrator. It was incubated for 30 min at ambient temperature in nonreducing sample buffer and run under Laemmli conditions ([Laemmli, 1970]) by loading a volume of 25 μl onto 7.5% polyacrylamide gels containing 0.1% sodium dodecyl sulphate (SDS), 2 mg ml^−1 casein and 0.16 μM human plasminogen. Following electrophoresis, gels were incubated for 1 h in 2.5% (v v^−1) Triton X-100 for removal of SDS and then for 1 h at 37°C in 50 mM Tris-HCl, 0.1 M NaCl, pH 7.6. Plasminogen activator (PA) activity was visualised as clear bands of lysis upon staining with 0.1% Coomassie blue R250. Purified human high-molecular-weight two-chain urokinase plasminogen activator (HMW-uPA) and low-molecular-weight urokinase plasminogen activator (LMW-uPA) were run in each gel as positive controls. An analogous protocol was followed to detect enzymatic activities towards MMP-2 and MMP-9 except that the 7% SDS–PAGE contained 1 mg ml^−1 bovine gelatin. The gels were incubated at 37°C for about 18 h in 5 mM Tris, pH 7.6 containing 0.2 M NaCl, 5 mM CaCl2 and 0.02 (w v^−1) Brij35. Protein staining was performed during 1 h with a 0.25% solution of Coomassie brillant blue R250 in 50% methanol and 7% acetic acid and destaining in a solution of 20% methanol and […]. […]

For the compound `CC(=O)OCc1ccc2oc(=O)c(C(=O)Oc3cccc(Cl)c3)cc2c1` [compound 4, 3-chlorophenyl 6-acetoxymethyl-2-oxo-2H-1-benzopyran-3-carboxylate], in assay [1], the inhibition at 1 µM was 50% and the inhibition at 10 µM stood at 90%. Further, the “effect on HMW- and LMW-uPA activities of conditioned culture medium (plasminogen zymography)” value in assay [2] is “did not abrogate”.

As to `CC(=O)OCc1ccc2oc(=O)c(C(=O)Oc3cccc(Br)c3)cc2c1` [compound 7, 3-bromophenyl 6-acetoxy-methyl-2-oxo-2H-1-benzopyran-3-carboxylate], in assay [1], the inhibition at 1 µM is 80% and the inhibition at 10 µM is about 90%. In assay [2], the “effect on HMW- and LMW-uPA activities of conditioned culture medium (plasminogen zymography)” value is recorded as “did not abrogate”.

The values are drawn from paper PMC2376372, “3-Bromophenyl 6-acetoxymethyl-2-oxo-2H-1-benzopyran-3-carboxylate inhibits cancer cell invasion in vitro and tumour growth in vivo” (British Journal of Cancer, 2003).
